A short description of data set [1]: Displacement of [3H]CNQX from AMPA receptor on rat brain homogenate. The data set is classed as tissue-based. For orientation: In a radioligand displacement assay an active substance lowers the binding of a labelled ligand.
Data set [2] in a line: Clearance in DBA/2 mouse at 30 mg/kg. The data set is classed as ADME, organism-based. More on the design: dose 30 mg/kg. As to conditions: in vivo.
Data set [3] deals with Mus musculus. In words: Anticonvulsant activity against po dosed electric-shock mouse model assessed as inhibition of convulsion in hind legs measured 2 hrs post administration. The data set is classed as functional.
Data set [4] is described as follows: Oral bioavailability in DBA/2 mouse at 30 mg/kg. It counts as ADME, organism-based. As to conditions: in vivo.
Data set [5] deals with Mus musculus. As to the kind of experiment: Anticonvulsant activity against po dosed electric-shock mouse model assessed as inhibition of convulsion in hind legs at 50 mg/kg, po measured 4 hrs post administration. It counts as functional.
In data set [6] the test system is Mus musculus. In words: Anticonvulsant activity in orally dosed DBA/2 mouse assessed as protection from tonic seizures measured 1 hr post administration. Particulars: DBA/2, po.
Data set [7] has as its system Mus musculus. In words: Anticonvulsant activity in DBA/2 mouse assessed as protection from audiogenic seizures at 30 mg/kg, ip measured 1 hr post administration. More on the design: dose 30 mg/kg. It counts as functional, organism-based.
Data set [8] deals with Mus musculus. As to the kind of experiment: Anticonvulsant activity in DBA/2 mouse assessed as protection from audiogenic seizures at 30 mg/kg, po measured 1 hr post administration. The data set is classed as functional.
For data set [9], the system named is Mus musculus. As to the kind of experiment: Anticonvulsant activity in DBA/2 mouse assessed as protection from audiogenic seizures at 10 mg/kg, po measured 1 hr post administration. It counts as functional.
The subject of data set [10] is Mus musculus. As to the kind of experiment: Anticonvulsant activity in intraperitoneally dosed DBA/2 mouse assessed as protection from tonic seizures measured 1 hr post administration. It counts as functional. Particulars: DBA/2, ip.

Activity calls are given as the source filed them. The calls are words filed in the database; no cut-off is given here.

Compound `CN(C)C(=O)c1cn(-c2cc3c(=O)n(NS(C)(=O)=O)c(=O)[nH]c3cc2C(F)(F)F)cn1` showed an IC50 in data set [1] of 420 nM.
`CS(=O)(=O)Nn1c(=O)[nH]c2cc(C(F)(F)F)c(N3CCCOCC3)cc2c1=O` came in with a clearance in [2] of 10.2 mL/min/kg. The ED50 in the data set on Mus musculus [3] came out at 10.5 mg/kg; in the data set with Mus musculus [6], 5.5 mg/kg. This compound also returned a bioavailability in data set [4] of 100%. In data set [1], this compound had an IC50 of 360 nM. Moreover, the inhibition in vivo at 50 mg/kg in the data set on Mus musculus [5] amounted to 20%.
Compound `CNC(=O)c1ncn(-c2cc3c(=O)n(NS(C)(=O)=O)c(=O)[nH]c3cc2C(F)(F)F)n1` showed an IC50 in [1] of 110 nM.
On the same count and under the same terms, under `CS(=O)(=O)Nn1c(=O)[nH]c2cc(C(F)(F)F)c(N)cc2c1=O` stands 1200 nM.
Consider `CS(=O)(=O)Nn1c(=O)[nH]c2cc([N+](=O)[O-])c(-n3ccnc3)cc2c1=O`, for which, in the data set on Mus musculus [7], the result was Active. Besides, the outcome with Mus musculus [8] was inactive. The compound further came in with a 50% inhibitory concentration (IC50) in [1] of 81 nM.
As for `CNC(=O)c1cn(-c2cc3c(=O)n(NS(C)(=O)=O)c(=O)[nH]c3cc2C(F)(F)F)cn1`, the outcome in the data set with Mus musculus [7] was Active. Also, the outcome in the data set with Mus musculus [8] was inactive. In addition, the bioavailability in [4] came out at 10%.
For `CS(=O)(=O)Nn1c(=O)[nH]c2cc(C(F)(F)F)c(NCCO)cc2c1=O`, the Activity in the data set with Mus musculus [9] was 20%. Moreover, the IC50 in [1] came to 550 nM.
`CN(C)C(=O)c1ncn(-c2cc3c(=O)n(NS(C)(=O)=O)c(=O)[nH]c3cc2C(F)(F)F)n1` registered an IC50 in data set [1] of 1020 nM.
In the case of `CS(=O)(=O)Nn1c(=O)[nH]c2cc(C(F)(F)F)c(N3CCOCC3)cc2c1=O`, in [2], the clearance is 135 mL/min/kg. The same compound gave a bioavailability in data set [4] of 100%. The compound also yielded an IC50 in data set [1] of 500 nM. Also, the ED50 in the data set on Mus musculus [10] is 58 mg/kg.
As for `CS(=O)(=O)Nn1c(=O)[nH]c2cc(C(F)(F)F)c(-n3cnnc3)cc2c1=O`, the result in the data set on Mus musculus [7] was Active. In addition, the outcome in the data set on Mus musculus [8] was inactive. Also, the bioavailability in [4] came to 10%. Besides, in data set [1], the IC50 was 46 nM. The ED50 with Mus musculus [10] was found to be 0.94 mg/kg.
The compound `CN(CCO)c1cc2c(=O)n(NS(C)(=O)=O)c(=O)[nH]c2cc1C(F)(F)F` showed a clearance in data set [2] of 49 mL/min/kg. In data set [4], this compound showed a bioavailability of 100%. In data set [1], this compound came in with an IC50 of 250 nM. Moreover, in the data set with Mus musculus [10], the ED50 was 7.9 mg/kg.
The compound `CS(=O)(=O)Nn1c(=O)[nH]c2cc(C(F)(F)F)c(-n3cccc3)cc2c1=O` showed an IC50 in data set [1] of 165 nM.
Take `CS(=O)(=O)Nn1c(=O)[nH]c2cc(C(F)(F)F)c(-n3ccnc3)cc2c1=O`: the result in the data set with Mus musculus [7] was Active. The result with Mus musculus [8] was inactive. Moreover, the IC50 in data set [1] stood at 44 nM.
With `CCNc1cc2c(=O)n(NS(C)(=O)=O)c(=O)[nH]c2cc1C(F)(F)F`, the Activity with Mus musculus [8] is reported as 53%. Also, the IC50 in [1] is 1000 nM.

As usually defined, the IC50 is the concentration at which inhibition is half-maximal. Read a high IC50 as a need for much substance. The clearance is the rate of elimination divided by the concentration. As a reminder, the ED50 is the dose that gives a 50% effect, or the effect in half of the subjects. Usually bioavailability stands for dose-corrected exposure relative to a reference, in per cent. As a reminder, the inhibition in vivo is the share of the control response that was lost under treatment.
